Assay results as given in PMC8041708, “Characterization of MK6240, a tau PET tracer, in autopsy brain tissue from Alzheimer’s disease cases” (European Journal of Nuclear Medicine and Molecular Imaging, 2020).
Read-outs that look alike come from different tables or passages of the source.

Columns and labels:
[1] = test system: ^3H-AV-1451 binding sites; parameters: method as in Hostetler et al. [21]; conditions: ref Hostetler et al. [21]; cited from earlier work
[2] = test system: ^3H-THK5351 binding sites in the hippocampus; experiment: Competitive binding assay with ^3H-THK5351 (1.5 nM) on AD hippocampus homogenates; parameters: species or system human
Procedure: (§1) Frozen post-mortem tissue from eight AD and seven control brains from the Netherlands Brain Bank (NBB) was homogenized in phosphate buffer saline (PBS) with additional 0.1% bovine serum albumin (BSA; […]) and protease/phosphatase inhibitors (10 μL/mL).
Competitive binding assays were also carried out with ^3H-THK5351 (1.5 nM) in PBS + 0.1% BSA (pH 7.4) on hippocampus homogenates, using increasing concentrations of unlabelled MK6240 (1.10^−14–1.10^−5 M) in PBS + 0.1% BSA for 2 h at room temperature.

[3] = target: ^3H-MK6240 binding sites in the temporal cortex (Homo sapiens, UniProt P10636); experiment: Competitive binding assay with ^3H-MK6240 (0.5 nM) on AD temporal cortex homogenates; conditions: for Fraction of sites with super-high affinity for the competitor (%): radioligand ^3H-MK6240, temporal cortex; for IC50: 2-site competition model, temporal cortex
Procedure: as §1
Competitive binding assays with ^3H-MK6240 (0.5 nM) were carried out for 90 min at 37 °C on temporal cortex homogenates from two AD brains, in PBS + 0.1% BSA (pH 7.4), using increasing concentrations of unlabelled MK6240, unlabelled THK5117 or unlabelled AV-1451 (1.10^−14–1.10^−5 M). The binding assay was terminated as described above. The half-maximal […] concentration (IC50) was determined using GraphPad Prism software and data were analysed using a 2-site competition model.

[4] = test system: ^3H-THK5351 binding sites in the hippocampus; parameters: method as in Lemoine et al. [12]; conditions: ref Lemoine et al. [12], cited from earlier work; for Fraction of sites with super-high affinity for the competitor (%): radioligand ^3H-THK5351
[5] = test system: ^18F-AV-1451 binding sites in AD brains; parameters: method as in Ni et al. (unpublished data); conditions: versus ^18F-AV-1451, ref Ni et al. (unpublished data), cited from earlier work
[6] = target: AD tissue; conditions: ref [7], [21], cited from earlier work
[7] = site 1, super-high affinity, read-out: IC50(supHigh)
[8] = site 2, high affinity, read-out: IC50(High)

Sequence of ^3H-MK6240 binding sites in the temporal cortex (P10636 623-695 limits assumed): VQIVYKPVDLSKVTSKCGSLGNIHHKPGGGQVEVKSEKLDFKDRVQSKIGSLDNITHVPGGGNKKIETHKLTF

| Fraction of sites with super-high affinity for the competitor (%) ([2]; radioligand ^3H-THK5351, hippocampus) | Competition with ^3H-THK5351 ([2]; unlabelled MK6240 1.10^-14-1.10^-5 M, hippocampus of three AD patients) | High affinity sites, fraction ([3]; ^3H-MK6240 competitions) | Fraction of sites with super-high affinity for the competitor (%) [3] | IC50 [3, 8] | SMILES | Competition with ^3H-AV-1451 [1] | IC50 [3, 7] | High affinity sites, fraction ([4]; ^3H-THK5351 competitions) | Fraction of sites with super-high affinity for the competitor (%) [4] | Proportion of sites with high affinity for the competitor ([5]; frontal cortex) | Proportion of sites with high affinity for the competitor ([5]; temporal cortex of AD brains) | Kd ([6]; unit inferred) | Low affinity sites, fraction ([4]; ^3H-THK5351 competitions) | Kd [6] | Low affinity sites, fraction ([3]; ^3H-MK6240 competitions) | IC50 ([3]; site 2, low affinity, read-out: IC50(low)) |
| --- | --- | --- | --- | --- | --- | --- | --- | --- | --- | --- | --- | --- | --- | --- | --- | --- |
| 0% | did not compete | 42% | 58% | 12 nM | Nc1c(F)ccc2cnc(-n3ccc4ccncc43)cc12 [MK6240] | lack of competition | 0.001 nM |  |  |  |  |  |  |  |  |  |
|  |  |  |  |  | CNc1ccc(-c2ccc3cc(OC[C@H](O)CF)ccc3n2)cn1 [THK5351] |  |  | 38% | 62% |  |  |  |  |  |  |  |
|  |  | 26% | 74% | 2 nM | Fc1ccc(-c2ccc3c(c2)[nH]c2ccncc23)cn1 [AV-1451] |  |  |  | 35% | 61% | 88% | 0.6 to 3.7 nM | 65% |  |  |  |

| SMILES | Fraction of sites with super-high affinity for the competitor (%) ([2]; radioligand ^3H-THK5351, hippocampus) | Competition with ^3H-THK5351 ([2]; unlabelled MK6240 1.10^-14-1.10^-5 M, hippocampus of three AD patients) | High affinity sites, fraction ([3]; ^3H-MK6240 competitions) | Fraction of sites with super-high affinity for the competitor (%) [3] | IC50 [3, 8] | Competition with ^3H-AV-1451 [1] | IC50 [3, 7] | High affinity sites, fraction ([4]; ^3H-THK5351 competitions) | Fraction of sites with super-high affinity for the competitor (%) [4] | Proportion of sites with high affinity for the competitor ([5]; frontal cortex) | Proportion of sites with high affinity for the competitor ([5]; temporal cortex of AD brains) | Kd ([6]; unit inferred) | Low affinity sites, fraction ([4]; ^3H-THK5351 competitions) | Kd [6] | Low affinity sites, fraction ([3]; ^3H-MK6240 competitions) | IC50 ([3]; site 2, low affinity, read-out: IC50(low)) |
| --- | --- | --- | --- | --- | --- | --- | --- | --- | --- | --- | --- | --- | --- | --- | --- | --- |
| CNc1ccc(-c2ccc3cc(OCC(O)CF)ccc3n2)cc1 (stereo not drawn) [THK5117] |  |  |  | 37% |  |  | 0.002 nM | 54% | 46% |  |  |  |  | 2.2 nM | 63% | 304 nM |
